Results as given in patent US4273765A, “Amino sugar derivatives containing trehalose” (Hoffmann-La Roche Inc., priority 1978, dated 1981).

Molecular target: T1, porcine pancreatic α-amylase (Sus scrofa, UniProt P00690)
T1 sequence (P00690 16-511): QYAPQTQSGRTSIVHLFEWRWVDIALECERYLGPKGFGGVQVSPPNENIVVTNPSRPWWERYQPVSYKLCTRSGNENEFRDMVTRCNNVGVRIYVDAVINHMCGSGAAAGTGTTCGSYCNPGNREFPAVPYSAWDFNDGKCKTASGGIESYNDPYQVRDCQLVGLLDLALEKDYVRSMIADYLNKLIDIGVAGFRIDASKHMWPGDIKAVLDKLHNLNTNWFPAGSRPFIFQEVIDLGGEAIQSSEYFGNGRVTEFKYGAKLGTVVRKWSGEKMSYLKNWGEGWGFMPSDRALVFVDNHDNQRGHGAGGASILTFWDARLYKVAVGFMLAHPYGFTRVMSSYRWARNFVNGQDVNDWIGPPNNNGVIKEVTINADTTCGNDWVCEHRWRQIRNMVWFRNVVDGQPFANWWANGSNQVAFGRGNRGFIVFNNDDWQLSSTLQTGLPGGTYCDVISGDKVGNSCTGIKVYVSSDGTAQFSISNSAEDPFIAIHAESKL
Assay: Porcine pancreatic α-amylase inhibitory activity (Bernfeld assay)
Assay type: biochemical
Details: IU = amount giving 50% inhibition of 2 units porcine pancreatic α-amylase, pH 6.9, 37° C.
Protocol: 2 units* of porcine pancreatic α-amylase in 0.1 ml of 6.4 mM ammonium sulfate solution are added to 0.6 ml of 20 mM phosphate buffer (pH 6.9) containing 10 mM sodium chloride and different amounts of Trestatin. The mixture, after equilibration at 37° C. for 5 min. followed by the addition of 0.5 ml of 4% soluble starch solution, is incubated for 5 min. at 37° C. The reaction is terminated by the addition of 2 ml of dinitrosalicylic acid reagent prepared according to the method of P. Bernfeld. The mixture is heated on a boiling water bath for 5 min. and then diluted with 10 ml of water. Absorbance (A1) of the resulting colored solution is measured at 540 nm, and the inhibition of α-amylase activity can be calculated from the following equation: [formula] A0; absorbance without enzyme A2; absorbance without Trestatin
*1 unit of the α-amylase is the amount of enzyme which catalyzes under the above conditions without Trestatin the formation of reducing sugars equivalent to 1 μmol of maltose.
Each of said inhibitory activities was determined by the method mentioned above.

Row | Substance | Inhibitory activities
1 | Trestatin C trihydrochloride [Trestatin C . HCl] | 4.5 × 10^7 IU/g
2 | Trestatin A dihydrochloride [Trestatin A . HCl] | 6.3 × 10^7 IU/g
3 | Trestatin B monohydrochloride [Trestatin B . HCl] | 1.3 × 10^6 IU/g
